Patent US10774047B2 (THE TRUSTEES OF THE UNIVERSITY OF PENNSYLVANIA, priority 2015, dated 2020)
Entries after “also recorded” stand apart in the source; their conditions may differ.

Legend:
A375P cells [1] = test: Galectin-3 punctae assay (lysosomal membrane permeabilization); type: cell-based; conditions: 6 hours (LLOMe 3 hr, 2 mM)
Method: (§1) FIG. 3: Central nitrogen methylation status dictates DNA damage versus lysosomal membrane permeability. […] Cells were imaged with fluorescent microscopy, phospho-H2AX+ cells were scored using ImageJ software analysis and quantified to the right. (B) A375P cells were treated identical to the conditions in (A), with the addition of the positive control LLoMe (3 hr, 2 mM). Cells were subsequently stained with galectin-3 and imaged with fluorescent microscopy. The formation of galectin-3 punctae, which signify lysosomal membrane permeabilization, are pointed out with yellow arrows.
When lysosomes are healthy, galectin-3 is uniformly dispersed throughout the cell. However, when the lysosome is damaged, galectin-3 rapidly localizes to the site of damaged lysosomes, appearing as punctae and marking individual leaky lysosomes.

A375P (melanoma) cells = test: MTT anti-proliferative assay (72 hr) in A375P cells; type: cell-based; conditions: for anti-proliferative potency / activity (comparative): A375P and PANC1 cells, FIGS. 1C and 1D
Method: (§2) (A) Schematic of dimeric antimalarials (B) A375P cells were plated in a 384-well highthroughput format and treated with the quinacrine-, mefloquine- and primaquine-based compounds shown (72 hr, 1 nM-30 μM). Viability was standardized to vehicle (water) treated controls and shown are Log IC50 values calculated using GraphPad Prism. Alamar blue. (C) A375P cells were treated with the DQ compound library (72 hr, 1 nM-30 μM) MTT. (D) PANC1 cells were treated identically to (C). (E) PANC1 cells were treated with the DQ compound library as well as Lys05, Spautin and SBI-0206965 (72 hr, 3 μM). Apoptosis was assessed by Annexin-V/flow cytometry.
For MTT assays, cells were plated in 96-well plates (2,000 cells/well), allowed to adhere overnight, and subsequently treated in triplicate for 72 hours. MTT reagent (Roche) was applied, cells were solubilized and absorbance was read at 570 nm, with background subtraction at 690 nm. The clonogenic assay was performed as previously described. Briefly, cells were suspended in appropriate culture media, and plated in 6-well plates (2×10^3 cells/well). Medium was changed and drug treatment refreshed every 3-4 days for 2 weeks. Cells were subsequently stained with crystal violet and quantified.
In an attempt to improve in vivo activity, we designed a series of second-generation analogs of Lys05 to test the effect of changing each of the separate parts of the Lys05 structure on lysosomal inhibition and cytotoxicity. Replacement of the linker of Lys05 with the commercially available linker spermidine and exchanging the aromatic rings of Lys05 from CQ to the antimalarial-based heterocyclic systems primaquine (PQ), mefloquine (MQ) and quinacrine (QC) was interrogated (FIG. 1A). The dimeric antimalarial compounds were named DC (dimeric chloroquine), DM (dimeric mefloquine), DP (dimeric primaquine) and DQ (dimeric quinacrine). The dimeric compounds were named followed by three digits (m, n, r) where m signifies the number of carbons to the left of the central nitrogen, the n signifies the number of carbons on the right of the central nitrogen and the r signifies if the central nitrogen is methylated (1) or not (0). […] We generated a focused library of DQs with triamine linkers of increasing length ranging from lengths of two to eleven carbons between the QC heterocycle and the central nitrogen of the triamine linker. Both secondary and tertiary amine derivatives of each analog were generated to determine the role of central nitrogen alkylation on biological activity. A375P and PANC1 (pancreatic cancer) cells were treated with CQ, Lys05, QC and the DQ library, establishing the increase in anti-proliferative potency of DQs relative to monomeric QC. […] We observed a clear relationship between linker length and potency amongst the DQs. […] When tested in parallel to the DQs. […] PANC1 cells were treated with the panel of DQs (3 uM) as well as Spautin-1 (3 μM) and SBI-0206965 (3 μM) for 24 hours.

451Lu (melanoma) cells = test: Bafilomycin clamp experiment (autophagic flux); type: cell-based; conditions: 3 μM, with or without bafilomycin-A1, 24 hours
A375P cells [2] = test: phospho-H2AX immunofluorescence (DNA damage); type: cell-based; conditions: 6 hr, 3 μM
Method: as §1
The longer linked DQs can be separated into two classes based on central nitrogen substitution (secondary or tertiary amine)—those that localize to the nucleus and those that localize to the lysosome. We next sought to determine whether both classes of DQs cause DNA damage since quinacrine is known to intercalate DNA. […] Furthermore, the difference in DNA damage induced by unmethylated DQs versus the corresponding methylated DQs for each pair of compounds increase with increasing linker length.

[3] = test system: 1205Lu melanoma xenografts; test: 1205Lu melanoma xenograft model; type: in vivo, NSG mice; conditions: 8 mg/kg i.p., 2 days on / 2 days off
Method: FIG. 5: DQ661 has significant single-agent in vivo activity in melanoma xenograft model. […]. Mice were randomly split into 4 arms and treated with vehicle control (water, i.p.), quinacrine (8 mg/kg, i.p.), DQ660 (8 mg/kg, i.p.) or DQ661 (8 mg/kg, i.p.). Treatments were given as shown by the black arrows, following a regimen of 2 days on treatment followed by 2 days off treatment. (C) Representative electron micrographs from melanoma xenograft tumors harvested after 2 days of treatment according to (B). (D) Average tumor volumes for each treatment arm are shown. Each point represents the mean of N=8 mice per treatment arm and the error bars represent standard error (s.e.) (C) Representative EM for tumors treated in each arm. (E) A schematic for how mice were treated in (F). […]. Mice were randomly split into 3 arms and treated with water (i.p.), DQ661 (2 mg/kg, i.p.) or DQ661 (4 mg/kg, i.p.). Treatments were give as shown by the black arrows, following a regimen of 2 days on treatment followed by 2 days […]. Tumor volume is shown. Each point represents the mean of N=8 mice per treatment arm and the error bars represent s.e. (G) Average tumor growth rate for each treatment arm are shown. (H) Protein lysate was harvested from mouse tumors at the end of the experiment and immunoblotted for LC3B, phospho-4E-BP1 T37_T65, phospho-4E-BP1 S240_S244 and Actin. Quantification of proteins standardized to control mice levels are shown to the right.
Five to seven-week old NOD-scid gamma (NSG) mice (Jackson Laboratory) were used for xenograft studies with the 1205Lu melanoma cell line. Tumor generation, tumor measurement and tumor harvesting performed as previously described (ref). For the pancreatic cancer model, five to seven-week old C57BL/6 mice (Jackson Laboratory) and maintained under pathogen-free conditions. 2×10^6 G43 cells were subcutaneously injected with an equal volume of matrigel (BD) over the right flank […] and tumors became palpable after 5-6 days. Mice were enrolled on day 6 and given Gemcitabine (120 mg/kg, i.p.). DQ661 (4 mg/kg, i.p.) was given on days 7, 8, 12, 13, 17 and 18. Perpendicular tumor diameters were measured sing electronic calipers and volume was calculated leveraging the formula L×W^2×0.5, where L is the longest dimension and W is the perpendicular dimension. All animal experiments were performed in accordance to the protocols approved by the Institute of Animal Care and Use Committee of the University of Pennsylvania.
. After 1-2 weeks, tumors were palpable and mice were treated with vehicle control (water), quinacrine (8 mg/kg), DQ660 (8 mg/kg) or DQ661 (8 mg/kg) i.p (FIG. 5A). […]. Therefore another 1205Lu xenograft experiment was performed with mice treated with either vehicle control (water, n=6) or DQ661 (2 or 4 mg/kg, n=6) for a period of 14 days (FIG. 5e, 5F).

mTORC1 = test: Immunoblot of mTORC1 signaling and LC3B, panel of lysosomal inhibitors; conditions: A375P cells; for 4E-BP1 phosphorylation: PES 10 μM, PET 10 μM, Bafilomycin A1 100 nM; for mTORC1 activity (Western blotting): DQ661 3 μM, Pepstatin A 10 μG/mL, Siramesine 8 μM
PANC1 cells = test: Annexin V binding flow cytometry apoptosis assay; type: cell-based; conditions: 3 μM, 24 hours
Method: as §2
In an attempt to improve in vivo activity, we designed a series of second-generation analogs of Lys05 to test the effect of changing each of the separate parts of the Lys05 structure on lysosomal inhibition and cytotoxicity. Replacement of the linker of Lys05 with the commercially available linker spermidine and exchanging the aromatic rings of Lys05 from CQ to the antimalarial-based heterocyclic systems primaquine (PQ), mefloquine (MQ) and quinacrine (QC) was interrogated (FIG. 1A). The dimeric antimalarial compounds were named DC (dimeric chloroquine), DM (dimeric mefloquine), DP (dimeric primaquine) and DQ (dimeric quinacrine). […]

COc1ccc2nc3cc(Cl)ccc3c(NCCN(C)CCNc3c4ccc(Cl)cc4nc4ccc(OC)cc34)c2c1 [DQ 221]
galectin-3 staining pattern (A375P cells [1]): diffuse staining for galectin-3
anti-proliferative potency / activity (comparative) (A375P (melanoma) cells): same activity as monomeric QC; also recorded: potency was equal to monomeric quinacrine
effect on autophagic flux (LC3II/LC3I ratio with vs without bafilomycin-A1) (451Lu (melanoma) cells): autophagy inhibitors

COc1ccc2nc3cc(Cl)ccc3c(NCCCNCCCNc3c4ccc(Cl)cc4nc4ccc(OC)cc34)c2c1 [DQ 330]
anti-proliferative potency / activity (comparative) (A375P (melanoma) cells): significant increase in anti-proliferative potency

COc1ccc2nc3cc(Cl)ccc3c(NCCCCNCCCNc3c4ccc(Cl)cc4nc4ccc(OC)cc34)c2c1 [DQ 340]
IC50, anti-proliferative activity (A375P (melanoma) cells; A375P cells, FIG. 1B): low nanomolar

COc1ccc2nc3cc(Cl)ccc3c(NCCCCN(C)CCCNc3c4ccc(Cl)cc4nc4ccc(OC)cc34)c2c1 [DQ 341]
effect on autophagic flux (LC3II/LC3I ratio with vs without bafilomycin-A1) (451Lu (melanoma) cells): autophagy inhibitors

COc1ccc2nc3cc(Cl)ccc3c(NCCCCN(C)CCCCNc3c4ccc(Cl)cc4nc4ccc(OC)cc34)c2c1 [DQ 441]
effect on autophagic flux (LC3II/LC3I ratio with vs without bafilomycin-A1) (451Lu (melanoma) cells): autophagy inhibitors

COc1ccc2nc3cc(Cl)ccc3c(NCCCCCNCCCCCNc3c4ccc(Cl)cc4nc4ccc(OC)cc34)c2c1 [DQ 550]
galectin-3 staining pattern (A375P cells [1]): diffuse staining for galectin-3
DNA damage (phospho-H2AX, γ-H2AX) (A375P cells [2]): significantly greater levels of DNA damage relative to their methylated counterparts

COc1ccc2nc3cc(Cl)ccc3c(NCCCCCN(C)CCCCCNc3c4ccc(Cl)cc4nc4ccc(OC)cc34)c2c1 [DQ 551]
galectin-3 staining pattern (A375P cells [1]): punctate distribution of galectin-3
effect on autophagic flux (LC3II/LC3I ratio with vs without bafilomycin-A1) (451Lu (melanoma) cells): autophagy inhibitors

COc1ccc2nc3cc(Cl)ccc3c(NCCCCCCNCCCCCCNc3c4ccc(Cl)cc4nc4ccc(OC)cc34)c2c1 [DQ 660]
galectin-3 staining pattern (A375P cells [1]): diffuse staining for galectin-3
DNA damage (phospho-H2AX, γ-H2AX) (A375P cells [2]): significantly greater levels of DNA damage relative to their methylated counterparts
tumor growth [3]: modest but significant growth impairment of tumors

COC(=O)[C@H](CC(C)C)NC(=O)[C@@H](N)CC(C)C [LLOMe, L-leucyl-L-leucine methyl ester, reference compound]
galectin-3 staining pattern (A375P cells [1]): punctate distribution of galectin-3

NS(=O)(=O)C#Cc1ccccc1 [PES]
4E-BP1 phosphorylation (mTORC1): hyperphosphorylation of 4E-BP1

CNC(=O)c1ccccc1Oc1nc(Nc2cc(OC)c(OC)c(OC)c2)ncc1Br [SBI-0206965, reference compound]
apoptosis (annexin V) (PANC1 cells): did not induce significant levels of apoptosis
anti-proliferative potency / activity (comparative) (A375P (melanoma) cells): did not have significantly increased anti-cancer activity relative to monomeric chloroquine or monomeric quinacrine

Fc1ccc(-n2cc(CCCCN3CCC4(CC3)OCc3ccccc34)c3ccccc32)cc1 [Siramesine]
mTORC1 activity (Western blotting) (mTORC1): did not inhibit mTORC1 activity

Fc1ccc(CNc2ncnc3ccc(F)cc23)cc1 [Spautin-1, reference compound]
apoptosis (annexin V) (PANC1 cells): did not induce significant levels of apoptosis
anti-proliferative potency / activity (comparative) (A375P (melanoma) cells): did not have significantly increased anti-cancer activity relative to monomeric chloroquine or monomeric quinacrine

CCN(CC)CCCC(C)Nc1c2ccc(Cl)cc2nc2ccc(OC)cc12 (centres unmarked) [quinacrine, reference compound]
galectin-3 staining pattern (A375P cells [1]): diffuse staining for galectin-3
tumor growth [3]: no significant effect on tumor growth compared to vehicle control
effect on autophagic flux (LC3II/LC3I ratio with vs without bafilomycin-A1) (451Lu (melanoma) cells): induces autophagic flux

Bafilomycin
4E-BP1 phosphorylation (mTORC1): hyperphosphorylation of 4E-BP1

Pepstatin A
mTORC1 activity (Western blotting) (mTORC1): did not significantly affect mTORC1 activity
